SMILES strings stand for the structures. Converted amounts (≈) assume the structure as drawn. The source made the active and inactive calls. The calls are words filed in the database; no cut-off is given here.

The target in data set [1] is DNA topoisomerase 2-alpha (Homo sapiens) (UniProt P11388). The data set can be described thus: Inhibition of TOP2 (unknown origin) assessed as formation of short DNA fragments using supercoiled plasmid DNA at 100 uM by ethidium bromide staining based gel.
In the next data set the test system is A549. The data set can be described thus: Antiproliferative activity against human A549 cells assessed as inhibition of cell proliferation incubated for 72 hrs by CCK8 assay. It is filed as functional, cell-based. Particulars: A549, 72 h. A general note: Tetrazolium assays rely on reduction of a dye to a coloured formazan, in cell work by metabolically active cells.

For a further data set, the system named is MDA-MB-231. The data set can be described thus: Antiproliferative activity against human MDA-MB-231 cells assessed as inhibition of cell proliferation incubated for 72 hrs by CCK8 assay. Format: functional, cell-based. Particulars: MDA-MB-231, 72 h.
Data set [2] in a line: Solubility of the compound in double distilled water. It is filed as physicochemical.
A further data set has as its system HCT-116. The data set can be described thus: Antiproliferative activity against human HCT-116 cells assessed as inhibition of cell proliferation incubated for 72 hrs by CCK8 assay. Format: functional, cell-based. Particulars: HCT-116, 72 h.

Sequence of DNA topoisomerase 2-alpha (Homo sapiens) (P11388 whole entry, the tested form may be a part): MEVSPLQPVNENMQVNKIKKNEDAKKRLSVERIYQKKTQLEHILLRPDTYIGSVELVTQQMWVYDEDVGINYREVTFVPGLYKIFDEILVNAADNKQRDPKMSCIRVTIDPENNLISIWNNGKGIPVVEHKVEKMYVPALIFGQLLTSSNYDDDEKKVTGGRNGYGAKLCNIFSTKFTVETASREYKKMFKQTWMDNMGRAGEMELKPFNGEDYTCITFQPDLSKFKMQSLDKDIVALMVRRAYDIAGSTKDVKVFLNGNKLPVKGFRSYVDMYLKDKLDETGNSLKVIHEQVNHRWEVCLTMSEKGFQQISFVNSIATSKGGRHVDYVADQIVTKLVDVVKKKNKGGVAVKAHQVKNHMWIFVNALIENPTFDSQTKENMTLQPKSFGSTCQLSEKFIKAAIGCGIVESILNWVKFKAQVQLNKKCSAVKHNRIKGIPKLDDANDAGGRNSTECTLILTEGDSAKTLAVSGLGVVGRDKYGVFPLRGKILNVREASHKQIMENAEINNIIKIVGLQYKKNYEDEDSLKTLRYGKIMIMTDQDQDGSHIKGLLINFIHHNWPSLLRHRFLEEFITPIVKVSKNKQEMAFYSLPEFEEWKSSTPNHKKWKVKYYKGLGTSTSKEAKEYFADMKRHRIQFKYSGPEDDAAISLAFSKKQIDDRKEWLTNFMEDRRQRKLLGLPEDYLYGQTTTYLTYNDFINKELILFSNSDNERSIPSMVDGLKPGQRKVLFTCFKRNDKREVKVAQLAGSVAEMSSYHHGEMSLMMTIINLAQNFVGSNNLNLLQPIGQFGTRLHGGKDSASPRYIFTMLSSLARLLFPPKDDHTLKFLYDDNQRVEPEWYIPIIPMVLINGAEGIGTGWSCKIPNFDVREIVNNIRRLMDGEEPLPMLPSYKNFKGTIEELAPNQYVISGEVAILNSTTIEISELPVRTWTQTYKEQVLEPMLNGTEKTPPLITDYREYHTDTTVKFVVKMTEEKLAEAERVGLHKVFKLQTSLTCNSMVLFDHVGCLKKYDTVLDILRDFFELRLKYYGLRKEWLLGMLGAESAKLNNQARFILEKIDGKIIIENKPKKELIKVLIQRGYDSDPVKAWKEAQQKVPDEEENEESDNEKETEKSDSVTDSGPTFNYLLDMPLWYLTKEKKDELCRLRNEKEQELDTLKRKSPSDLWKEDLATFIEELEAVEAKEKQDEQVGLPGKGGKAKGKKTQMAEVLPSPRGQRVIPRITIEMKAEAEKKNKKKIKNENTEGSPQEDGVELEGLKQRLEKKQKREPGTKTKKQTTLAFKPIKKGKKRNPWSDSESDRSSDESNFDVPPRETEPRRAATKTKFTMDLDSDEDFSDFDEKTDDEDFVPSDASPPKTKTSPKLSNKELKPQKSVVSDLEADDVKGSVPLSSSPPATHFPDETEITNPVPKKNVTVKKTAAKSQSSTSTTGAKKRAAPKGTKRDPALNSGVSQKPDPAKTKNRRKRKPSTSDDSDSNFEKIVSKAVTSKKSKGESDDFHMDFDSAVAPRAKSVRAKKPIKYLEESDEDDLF

In general, IC50 refers to the concentration needed to halve the response being measured. As a reminder, the solubility is the concentration that dissolves in the medium under given conditions. For `CN1c2ccccc2C(=O)N2CCc3c([nH]c4ccc(NC(=O)C(N)CO)cc34)C21` (stereo not drawn), in data set [1], the inhibition entry is “Active”. Further, the IC50 with A549 came to 6.3 µM; in the data set with MDA-MB-231, 0.87 µM; with HCT-116, 1.9 µM. For the same compound, the solubility in data set [2] is 20 µg/mL (≈ 49.3 µM).

With `CC(N)C(=O)Nc1ccc2[nH]c3c(c2c1)CCN1C(=O)c2ccccc2N(C)C31` (stereo not drawn), in data set [1], the inhibition result is “Active”. Further, the IC50 with A549 was 4.9 µM; in the data set on MDA-MB-231, 0.52 µM; with HCT-116 it was 0.94 µM. For the same compound, the concentration in solution in data set [2] (solubility) was 28 µg/mL (≈ 71.9 µM).

`CSCCC(N)C(=O)Nc1ccc2[nH]c3c(c2c1)CCN1C(=O)c2ccccc2N(C)C31` (stereo not drawn): the inhibition result in data set [1] is “Active”. For the same compound, the IC50 in the data set on A549 is more than 10 µM; with MDA-MB-231, 0.81 µM; in the data set on HCT-116, 1.6 µM. The same compound registered a solubility in data set [2] of 15 µg/mL (≈ 33.4 µM).

Turning to `CN1c2ccccc2C(=O)N2CCc3c([nH]c4ccc(NC(=O)C(N)CCC(N)=O)cc34)C21` (stereo not drawn), the inhibition result in data set [1] is “Active”. Further, the IC50 with A549 was more than 10 µM; with MDA-MB-231 it was more than 10 µM; with HCT-116, 5.8 µM. This compound also returned a solubility in data set [2] of 14 µg/mL (≈ 31.4 µM).

For `CN1c2ccccc2C(=O)N2CCc3c([nH]c4ccc(NS(N)(=O)=O)cc34)C21` (stereo not drawn), the inhibition entry in data set [1] was “Active”. Moreover, the IC50 is 5 µM with A549, 0.84 µM in the data set with MDA-MB-231 and 1.1 µM in the data set on HCT-116. In addition, the concentration in solution in data set [2] (solubility) came to 23 µg/mL (≈ 57.9 µM).

As to `CNCC(=O)Nc1ccc2[nH]c3c(c2c1)CCN1C(=O)c2ccccc2N(C)C31` (stereo not drawn), the inhibition entry in data set [1] is “Active”. The results for the IC50 in the data set with A549, with MDA-MB-231 and in the data set on HCT-116 were more than 10 µM, 1.8 µM and 1.4 µM, respectively. In data set [2], the concentration in solution (solubility) was 25 µg/mL (≈ 64.2 µM).

Regarding `CN1c2ccccc2C(=O)N2CCc3c([nH]c4ccc(NC(=O)C(N)Cc5ccc(O)cc5)cc34)C21` (stereo not drawn), in data set [1], the inhibition result is “Active”. The 50% inhibitory concentration (IC50) was more than 10 µM with A549, 0.55 µM in the data set on MDA-MB-231 and 1.26 µM with HCT-116. In data set [2], this compound yielded a solubility of 12 µg/mL (≈ 24.9 µM).

For `CC[C@@]1(O)C(=O)OCc2c1cc1n(c2=O)Cc2cc3ccccc3nc2-1` [CAMPTOTHECIN], the values for the IC50 in the data set with A549, with MDA-MB-231 and in the data set with HCT-116 were 0.17 µM, 0.241 µM and 0.017 µM, respectively.

On to `CC(C)CC(N)C(=O)Nc1ccc2[nH]c3c(c2c1)CCN1C(=O)c2ccccc2N(C)C31` (stereo not drawn), for which the inhibition result in data set [1] is “Active”. In addition, the IC50 in the data set on A549, with MDA-MB-231 and in the data set on HCT-116 was more than 10 µM in each case. Moreover, the solubility in data set [2] was found to be 14 µg/mL (≈ 32.4 µM).

Regarding `CN1c2ccccc2C(=O)N2CCc3c([nH]c4ccc(NC(=O)C5CCC(=O)N5)cc34)C21` (stereo not drawn), the inhibition result in data set [1] was “Active”. Further, the IC50 in the data set on A549, with MDA-MB-231 and with HCT-116 was more than 10 µM each time. For the same compound, the solubility in data set [2] came to 11 µg/mL (≈ 25.6 µM).

As to `CN1c2ccccc2C(=O)N2CCc3c([nH]c4ccc(NC(=O)C(N)Cc5ccccc5)cc34)C21` (stereo not drawn), in data set [1], the inhibition entry was “Active”. Besides, the IC50 in the data set with A549 is more than 10 µM; in the data set on MDA-MB-231 it was more than 10 µM; in the data set with HCT-116, 4.4 µM. For the same compound, in data set [2], the solubility is 16 µg/mL (≈ 34.4 µM).

For the compound `CN1c2ccccc2C(=O)N2CCc3c([nH]c4ccc(OC(=O)CCC(=O)OCCN5CCOCC5)cc34)C21` (stereo not drawn), the inhibition result in data set [1] was “Active”. Moreover, the figures for the IC50 with A549, in the data set with MDA-MB-231 and with HCT-116 were more than 10 µM, 0.02 µM and less than 0.003 µM, respectively. Besides, the concentration in solution in data set [2] (solubility) came to 17 µg/mL (≈ 31.9 µM).

For `CN1c2ccccc2C(=O)N2CCc3c([nH]c4ccc(NC(=O)CCC(=O)O)cc34)C21` (stereo not drawn), the inhibition result in data set [1] is “Active”. Also, the half-maximal inhibitory concentration (IC50) is more than 10 µM in the data set with A549, 0.53 µM with MDA-MB-231 and 1.4 µM in the data set on HCT-116. The compound further came in with a solubility in data set [2] of 16 µg/mL (≈ 38.2 µM).

Consider `CC(O)C(N)C(=O)Nc1ccc2[nH]c3c(c2c1)CCN1C(=O)c2ccccc2N(C)C31` (stereo not drawn), for which, in data set [1], the inhibition entry was “Active”. Also, the IC50 with A549 is more than 10 µM; in the data set on MDA-MB-231, more than 10 µM; with HCT-116, 1.6 µM. For the same compound, the solubility in data set [2] worked out at 11 µg/mL (≈ 26.2 µM).

The record behind these values is ChEMBL document CHEMBL4837225, “Water-soluble derivatives of evodiamine: Discovery of evodiamine-10-phosphate as an orally active antitumor lead compound” (Eur J Med Chem, 2021).
